Source: ChEMBL document CHEMBL1139223, “Isofagomine- and 2,5-anhydro-2,5-imino-D-glucitol-based glucocerebrosidase pharmacological chaperones for Gaucher disease intervention” (J Med Chem, 2007)

Columns and labels:
L444P [1] = experiment: Increase in non-lysosomal activity of glucocerebrosidase […] mutant in human L444P cells at 50 uM relative to Conduritol B epoxide; assay type: cell-based
[2] = molecular target: T1, Lysosomal acid glucosylceramidase (Homo sapiens, UniProt P04062); experiment: Inhibition of glucocerebrosidase
T1 sequence (P04062 whole entry): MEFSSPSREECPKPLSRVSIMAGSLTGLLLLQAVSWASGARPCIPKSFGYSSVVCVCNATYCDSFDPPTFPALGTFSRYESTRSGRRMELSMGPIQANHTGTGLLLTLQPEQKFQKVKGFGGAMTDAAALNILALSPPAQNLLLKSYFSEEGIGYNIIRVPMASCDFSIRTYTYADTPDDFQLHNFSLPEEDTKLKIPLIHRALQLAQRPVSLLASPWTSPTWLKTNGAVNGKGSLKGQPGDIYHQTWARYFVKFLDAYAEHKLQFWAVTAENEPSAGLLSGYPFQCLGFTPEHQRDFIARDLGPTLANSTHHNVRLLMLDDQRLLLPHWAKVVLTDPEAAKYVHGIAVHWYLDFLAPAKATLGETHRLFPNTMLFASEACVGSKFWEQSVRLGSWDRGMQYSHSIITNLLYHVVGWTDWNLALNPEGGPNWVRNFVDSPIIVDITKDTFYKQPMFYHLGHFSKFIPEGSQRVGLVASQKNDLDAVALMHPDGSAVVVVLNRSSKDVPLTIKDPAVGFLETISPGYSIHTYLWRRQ

[3] = molecular target: T2, Lysosomal acid glucosylceramidase (Homo sapiens) (UniProt P04062); experiment: Increase in non-lysosomal activity of glucocerebrosidase N370S mutant in human L444P cells at 20 uM relative to Conduritol B epoxide; assay type: cell-based
T2 sequence (whole entry): T1 sequence (P04062 whole entry)

L444P [4] = experiment: Increase in non-lysosomal activity of glucocerebrosidase […] mutant in human L444P cells at 150 uM relative to Conduritol B epoxide; assay type: cell-based
[5] = molecular target: T2, Lysosomal acid glucosylceramidase (Homo sapiens); experiment: Increase in non-lysosomal activity of glucocerebrosidase N370S mutant in human L444P cells at 75 uM relative to Conduritol B epoxide; assay type: cell-based
[6] = molecular target: T2, Lysosomal acid glucosylceramidase (Homo sapiens); experiment: Increase in non-lysosomal activity of glucocerebrosidase N370S mutant in human L444P cells at 50 uM relative to Conduritol B epoxide; assay type: cell-based
[7] = molecular target: T2, Lysosomal acid glucosylceramidase (Homo sapiens); experiment: Increase in non-lysosomal activity of glucocerebrosidase N370S mutant in human L444P cells at 30 uM relative to Conduritol B epoxide; assay type: cell-based
L444P [8] = experiment: Increase in non-lysosomal activity of glucocerebrosidase […] mutant in human L444P cells at 20 uM relative to Conduritol B epoxide; assay type: cell-based

| SMILES | IC50 [2] | Activity [3] | Activity [5] | Activity [6] | Activity [7] | Activity (L444P [1]) | Activity (L444P [4]) | Activity (L444P [8]) |
| --- | --- | --- | --- | --- | --- | --- | --- | --- |
| O=C(CCCCN1[C@H](CO)[C@@H](O)[C@H](O)[C@@H]1CO)NC12CC3CC(CC(C3)C1)C2 | 393 µM | 1.4 | – | – | – | 2.2 | – | – |
| O=C(CCCN1[C@H](CO)[C@@H](O)[C@H](O)[C@@H]1CO)NC12CC3CC(CC(C3)C1)C2 | 507 µM | – | – | – | 2.2 | – | – | 1.6 |

Further lines, with some results ahead:

| IC50 [2] | Activity [3] | Activity [5] | Activity [6] | Activity [7] | SMILES | Activity (L444P [1]) | Activity (L444P [4]) | Activity (L444P [8]) |
| --- | --- | --- | --- | --- | --- | --- | --- | --- |
| 94 µM | – | 2.3 | – | – | O=C(CCCCCN1C[C@H](CO)[C@@H](O)[C@H](O)C1)NC12CC3CC(CC(C3)C1)C2 | – | 5.1 | – |
| 11 µM | – | – | 1.9 | – | O=C(CCCCN1C[C@H](CO)[C@@H](O)[C@H](O)C1)NC12CC3CC(CC(C3)C1)C2 | – | 7.2 | – |
| 18 µM | – | 2.5 | – | – | O=C(CCCN1C[C@H](CO)[C@@H](O)[C@H](O)C1)NC12CC3CC(CC(C3)C1)C2 | – | 7 | – |
